# Source: article PMC5905120, “An innovative immunotherapeutic strategy for ovarian cancer: CLEC10A and glycomimetic peptides” (Journal for Immunotherapy of Cancer, 2018)
# Bridges are numbered along the chain shown (N, C = ends). Roman numbers before positions name the chains, in order. Where no end group is shown, it is not given here.
# How the values were obtained:
# human CLEC10A = biological target: T1, human CLEC10A (Homo sapiens, UniProt Q8IUN9); assay: Solid-phase binding to recombinant human CLEC10A; details: Fig. 2a, representative of 3 independent experiments
# T1 construct: purchased R&D Systems
# T1 sequence (Q8IUN9 61-316 limits assumed): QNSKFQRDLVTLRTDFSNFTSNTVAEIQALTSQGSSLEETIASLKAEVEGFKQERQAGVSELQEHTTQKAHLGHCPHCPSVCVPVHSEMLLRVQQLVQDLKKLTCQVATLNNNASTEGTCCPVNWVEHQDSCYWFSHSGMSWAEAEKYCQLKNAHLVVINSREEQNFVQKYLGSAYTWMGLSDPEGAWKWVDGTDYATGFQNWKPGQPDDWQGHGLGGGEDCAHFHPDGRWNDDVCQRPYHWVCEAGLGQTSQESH
# Description: (§1) Solid-phase binding assays were performed with streptavidin-, protein A/G-, or Nickel-coated microtiter plates (Pierce). His-tagged or Fc-fusion recombinant receptors (R&D Systems, Minneapolis, MN) were reconstituted in PBS. Sufficient receptors were added to wells to saturate the coating. His-tagged receptors were added to each well at a 5-fold excess over the stated capacity of the Ni coating to minimize non-specific binding of the peptide. Wells were washed three times with binding buffer (25 mM Tris HCl, pH 7.4, 150 mM NaCl, 0.05% Tween-20) to remove unbound receptor and 50 μL of 2 μM biotinylated peptide in binding buffer were added and allowed to incubate for 1 h. The wells were washed four times with binding buffer and then incubated with 50 μL of 1 μg/mL streptavidin conjugated with peroxidase (Sigma-Aldrich) for 1 h. The wells were washed five times with binding buffer and 50 μL of peroxidase substrate (1-Step™ Ultra TMB, Pierce) were added. After several minutes to allow color development, the reaction was stopped with 50 μL 1 M H3PO4 and absorbance was measured at 450 nm. Bound streptavidin was quantitated by the specific activity of peroxidase (absorbance/ng protein conjugate/min) under the conditions of the assay.
# Solid-phase binding assays were performed with recombinant human receptors. Three variations of the binding assay were used in this study, all of which allowed the arms of the tetravalent peptide to have full flexibility. (i) Biotinylated peptide was bound in microtiter wells coated with streptavidin and incubated with recombinant human receptors. After extensive washing, the bound receptor was measured by peroxidase conjugated to a receptor-specific antibody. (ii) The extracellular domains of receptors, which were fused with the Fc domain of immunoglobulin IgG, were bound in wells coated with protein A/G. Biotinylated peptide was incubated with the receptors and, after extensive washing, bound peptide was measured with streptavidin conjugated with peroxidase. Or (iii), recombinant receptors with a poly-His tag were bound to Nickel-coated wells and incubated with biotinylated peptide. svL4 and sv6D contain His residues (see Table 1) and can bind to the Ni coating, which was minimized by adding sufficient poly-His-tagged receptor to saturate the Ni coating.
# Siglec-1 = assay: Solid-phase binding to Siglec-1; set-up: species or system human; details: Fig. 2b
# Description: as §1, with “The wells were washed five times with binding buffer and 50 μL of peroxidase substrate (1-Step™ Ultra TMB, Pierce) were added.” left out
# Solid-phase binding assays were performed with recombinant human receptors. […] After extensive washing, the bound receptor was measured by peroxidase conjugated to a receptor-specific antibody. […]
# [1] = system: peritoneal cells of C57BL/6 mice; assay: Peritoneal immune cell populations by flow cytometry, C57BL/6 mice; format: in vivo, mouse (C57BL/6)
# Description: Healthy C57BL/6 male mice, 10 weeks old, were injected subcutaneously with peptides on alternate days. Peritoneal cells were isolated from mice 24 h after dosing by injecting ice cold PBS (containing 3% FBS) into the peritoneal cavity, gently massaging the abdomen, and then collecting the fluid, which was transferred into K2EDTA-treated tubes for evaluation of specific biomarkers. Cells from three mice in each group were pooled, counted and divided among FACS tubes (1 × 10^6 cells per tube). Cells were washed once in PBS containing 3% FBS, then stained with 0.25 to 1 μg of fluorescently conjugated antibody per 10^6 cells in 100 μL of buffer as recommended by the manufacturer (Table 2).
# Cells were incubated with the antibodies for 30 min at 4 °C in the dark. Following staining, the cells were washed two times with PBS/3% FBS and immediately analyzed with a MACSQuant flow cytometer (Miltenyi Biotech, Inc., San Diego, CA). Compensation was performed using single stain tubes for each color present in the analysis as well as an unstained control sample. Collection of flow cytometric data and analysis with FlowJo software, version 10.0.6 (FlowJo, LLC, Ashland, OR) were performed by Biomodels LLC (Watertown, MA).
# To examine whether increases occurred in mature immune cells, peritoneal cells from Balb/c and C57BL/6 mice were analyzed by flow cytometry after cells were stained with the markers listed in Table 2. […] To explore this observation more extensively, svL4 or sv6D was injected into C57BL/6 mice on day 0, 2 or 4. Peritoneal cells were examined by flow cytometry 24 h after each injection. Shown in Fig. 5 are results expressed as cell counts for F4/80 CD11b CD86 (mature, active macrophages); CD11c (DCs); CD11c CD 86 (activated DCs); CD4 CD69 (activated T cells); CD8 CD69 (activated cytotoxic T cells); NK1.1 CD3^+ CD69 (activated NKT cells); NK1.1 CD3^− CD69 (activated NK cells); CD19 (B cells); and CD19 CD73 CD80 CD273 (memory B cells). The numbers of these mature, activated cells continued to increase with each injection.
# Fig. 5 Expansion of peritoneal cells in C57BL/6 mice. Mice were injected subcutaneously at a dose of 1 nmole/g body weight of svL4, sv6D or svC1. Cells in each population recovered in a peritoneal lavage are expressed as cell counts (in thousands). Cells from three mice in each treatment group were pooled for analysis. The number of cells in each population was normalized to the average recovery of total cells from all groups. For each cell type, the left-hand, middle and right-hand set of bars represent samples from mice treated with svL4, sv6D or svC1, respectively. Mice were injected on days 0, 2 and 4, and cells were collected 24 h after each injection. Day 1, open bar; day 3, grey bar; day 5, black bar. Populations that express activation markers are indicated by an asterisk
# [2] = system: TREG cells within melanoma tumors; assay: TREG cells in tumors of melanoma-bearing mice; format: in vivo, mouse; details: preliminary (data not shown)
# brain glioma = details: in combination with brief radiation; ref [48]; cited from earlier work
# From the text: We asked whether the collective evidence of the role of ligands of CLEC10A, such as promoting DC maturation, T cell activation, and initiation of an immune response would coalesce into an effective anti-cancer therapy. To achieve this goal, the ligand should serve as a ‘trigger’ to initiate a cascade of events that will lead to activation of the immune system. Given that natural ligands of CLEC10A that contain GalNAc bind with low affinity and are antigenic, we considered whether a multivalent peptide mimetic of GalNAc would serve this purpose. We previously described ef ...
substance,measurement,setting,value
"I: VQATQSNQHTPRGGGSKK-NH2 / II: VQATQSNQHTPRGGGSK / III: VQATQSNQHTPRGGGS / IV: VQATQSNQHTPRGGGS (amide I:17-IV:C, I:18-II:C, II:17-III:C) [svL4]",binding to CLEC10A,human CLEC10A,bound to CLEC10A
same,binding to Siglec-1,Siglec-1,did not bind significantly
same,decrease of CD90.2^+ cells as small-cell population increased,[1]; 0.05 nmole/g svL4,more than 50%
same,response of CD19^+ B cells vs. sv6D,"[1]; 1 nmole/g s.c. on days 0, 2, 4, Fig. 5",responded more strongly to svL4
same,increase in mature immune cells,"[1]; 1 nmole/g s.c., single vs. second injection, 24 h",a significant increase occurred only after the second injection
same,Lin/CD90.2 status of small cells,[1]; 0.1 or 0.5 nmole/g svL4,nearly all cells were Lin^Neg and CD90.2^Neg
same,increase in mature immune cells,[1]; within 24 h after an injection (data not shown),Essentially no increase
same,"small cells (low FSc, low SSc)","[1]; within 24 h after injection, healthy C57BL/6, Fig. S1a",several-fold increase
same,TREG cells within tumors,[2],dramatic reduction in TREG cells
same,efficacy in murine brain glioma model,brain glioma,efficacy
